We go through 1 molecule from PMC10224441, “Structural Manipulations of Marine Natural Products Inspire a New Library of 3-Amino-1,2,4-Triazine PDK Inhibitors Endowed with Antitumor Activity in Pancreatic Ductal Adenocarcinoma” (Marine Drugs, 2023).

One data set has as its target T1, recombinant human PDK1 (Homo sapiens, UniProt Q15118).
T1 construct: purchased Abcam
The data set can be described thus: PDK1 ADPGlo Kinase Assay. It counts as biochemical. The protocol: The ability of the tested compounds to hamper the activity of PDK1-4 isoforms was firstly evaluated by means of a chemioluminescent assay, the ADPGlo™ Kinase Assay kit (Promega Corporation, Madison, WI, USA).
(§1) The in vitro inhibitory activity of tested compounds on recombinant human PDK1-4 isoforms (Abcam, Cambridge, MA, USA) was evaluated by using the ADPGlo™ Kinase Assay kit from Promega (Promega Corporation, Madison, WI, USA) following the instructions of the manufacturer, as previously described.

The subject of data set [1] is PSN-1 cells (KRAS-mutant PDAC). The experiment in a line: 2D cytotoxicity, MTT assay, PSN-1. It counts as cell-based. Conditions: Homo sapiens, PSN1; 72 h exposure, MTT test, 2D culture; read-out: IC50 (µM) ± S.D. PSN-1 (2D). The protocol: (§2) All newly developed 1,2,4-amino-triazine compounds were screened for their cytotoxic activity against two human PDAC cell lines, namely, a KRAS-wild-type PDAC cell line (BxPC-3 cells) and a KRAS-mutant PDAC cell line (PSN-1 cells). […] The cytotoxicity parameters, expressed in terms of IC50 and obtained after 72 h of drug exposure by MTT assay, are reported in Table 3.
(§3) All tested compounds were dissolved in DMSO just before the experiment, and a calculated amount of drug solution was added to the cell growth medium to a final solvent concentration of 0.5%, which had no detectable effects on cell viability.
(§4) Human pancreatic PSN-1 and BxPC-3 carcinoma cell lines were obtained by American Type Culture Collection (ATCC, Rockville, MD, USA). Cell lines were maintained in the logarithmic phase at 37 °C in a 5% carbon dioxide atmosphere using RPMI-1640 medium (EuroClone) containing 10% fetal calf serum (EuroClone, Milan, Italy), antibiotics (50 units/mL penicillin and 50 μg/mL streptomycin) and 2 mM l-glutamine.
(§5) The growth inhibitory effect on tumor cells was evaluated by means of MTT assay. Briefly, 5 × 10^3 cells/well were seeded in 96-well microplates in a growth medium (100 μL). After 24 h, the medium was removed and replaced with a fresh one containing the compound to be studied at the appropriate concentration. Triplicate cultures were established for each treatment. After 72 h, each well was treated with 10 μL of a 5 mg/mL MTT saline solution, and following 5 h of incubation, 100 μL of a sodium dodecyl sulfate (SDS) solution in HCl 0.01 M was added. After overnight incubation, cell growth inhibition was detected by measuring the absorbance of each well at 570 nm using a Bio-Rad 680 microplate reader. The mean absorbance for each drug dose was expressed as a percentage of the control untreated well absorbance and plotted vs. drug concentration. IC50 values, the drug concentrations that reduce the mean absorbance at 570 nm to 50% of those in the untreated control wells, were calculated by the four-parameter logistic (4-PL) model. The evaluation was based on means from at least four independent experiments.

In a further data set the target is recombinant human HSP90 (Homo sapiens, UniProt P07900). The data set can be described thus: HSP90 inhibition assay (Transcreener ADP kit). It counts as biochemical. The protocol:
Since the ATP binding pockets in PDKs and HSP90 are similar and taking into consideration that these 1,2,4-triazine derivatives conserved a chemical scaffold resembling that of the well-known Hsp90 inhibitor Ganetespib, the most performant PDK inhibitors 4d, 4f, 4h, 5d, 5f, 5h and 5j were also screened for their ability to target HSP90.
The in vitro inhibitory activity of tested compounds on recombinant human HSP90 was assessed by The Transcreener™ ADP kit (Bellbrook Labs, Madison, WI, USA) according to the manufacturer’s protocol as previously described.

The test system of another data set is BxPC-3 spheroids. The experiment in a line: 3D spheroid cytotoxicity, acid phosphatase (APH) assay, BxPC-3. The format is cell-based. The following applies: Homo sapiens, 72 h, acid phosphatase (APH) test, read-out: IC50 (µM) ± S.D. BxPC-3 (3D spheroids).
Another data set addresses T2, recombinant human PDK4 (Homo sapiens, UniProt Q16654).
T2 construct: purchased Abcam
The experiment in a line: PDK4 ADPGlo Kinase Assay. It counts as biochemical. The following applies: 1.5 µM compound, 30 min, room temperature. The protocol:
The ability of the tested compounds to hamper the activity of PDK1-4 isoforms was firstly evaluated by means of a chemioluminescent assay, the ADPGlo™ Kinase Assay kit (Promega Corporation, Madison, WI, USA). The results obtained by incubating PDK1-4 isoforms for 30 min at room temperature with 1.5 µM of tested compounds are depicted in Figure 3 panel A as a heat-map summary of the inhibition percentage on PDK1-4 enzymatic activity. All the newly synthesized compounds were able to inhibit the pyruvate dehydrogenase kinases, although to a different extent and showing a preferential activity towards the PDK1 and PDK4 isoforms. […] Conversely, all tested 1,2,4-triazin-3-amines were barely effective in blocking PDK2 activity at 1.5 µM concentration. In addition, IC50 values on the PDK1 isoform were also calculated for all synthesized derivatives and the results are shown in Table 2.
as §1

The test system of the next data set is PSN-1 spheroids. The data set can be described thus: 3D spheroid cytotoxicity, acid phosphatase (APH) assay, PSN-1. It counts as cell-based. The following applies: Homo sapiens, PSN1, 72 h, acid phosphatase (APH) test, read-out: IC50 (µM) ± S.D. PSN-1 (3D spheroids). The protocol:
Prompted by these encouraging results, we also screened the newly developed 1,2,4-triazine compounds against 3D spheroids of PDAC KRAS wild-type and mutant cells, to further estimate their anticancer potential in a more predictive environment. […] The PDAC cancer spheroids were treated with tested compounds for 72 h, and cell viability was assessed by means of the acid phosphatase (APH) assay (Table 3). The efficacy of gemcitabine as well as of DCA and DAP was assessed under the same experimental conditions.
Spheroid cultures were obtained by seeding 2.5 × 10^3 PSN-1 cancer cells/well in a round-bottom non-treated tissue culture 96-well plate (Greiner Bio-one, Kremsmünster, Austria) in phenol red-free RPMI-1640 medium (Sigma Chemical Co, St. Louis, MO, USA) containing 10% fetal calf serum and supplemented with 20% methylcellulose stock solution.
An APH-modified assay was used for determining cell viability in 3D spheroids, as previously described. Briefly, the pre-seeded spheroids were treated with fresh medium containing the compound to be studied at the appropriate concentration (range 2.5–200 μM). Triplicate cultures were established for each treatment. After 72 h, each well was treated with 100 μL of the assay buffer (0.1 M sodium acetate, 0.1% Triton-X-100, supplemented with ImmunoPure p-nitrophenyl phosphate; Sigma Chemical Co.) and, following 3 h of incubation, 10 μL of 1 M NaOH solution were added. The inhibition of the cell growth induced by the tested compounds was detected by measuring the absorbance of each well at 405 nm, using a Bio-Rad 680 microplate reader. The mean absorbance for each drug dose was expressed as a percentage of the control untreated well absorbance (T/C) and plotted vs. drug concentration. IC50 values, the drug concentrations that reduce the mean absorbance at 405 nm 50% of those in the untreated control wells, were calculated by the four-parameter logistic (4-PL) model. The evaluation was based on means from at least four independent experiments.

Data set [2] has as its system BxPC-3 cells (KRAS-wild-type PDAC). The experiment in a line: 2D cytotoxicity, MTT assay, BxPC-3. The format is cell-based. The following applies: Homo sapiens, BXPC-3; 72 h exposure, MTT test, 2D culture; read-out: IC50 (µM) ± S.D. BxPC-3 (2D). The protocol:
as §2, §3, §4, §5

T2 sequence (Q16654 whole entry): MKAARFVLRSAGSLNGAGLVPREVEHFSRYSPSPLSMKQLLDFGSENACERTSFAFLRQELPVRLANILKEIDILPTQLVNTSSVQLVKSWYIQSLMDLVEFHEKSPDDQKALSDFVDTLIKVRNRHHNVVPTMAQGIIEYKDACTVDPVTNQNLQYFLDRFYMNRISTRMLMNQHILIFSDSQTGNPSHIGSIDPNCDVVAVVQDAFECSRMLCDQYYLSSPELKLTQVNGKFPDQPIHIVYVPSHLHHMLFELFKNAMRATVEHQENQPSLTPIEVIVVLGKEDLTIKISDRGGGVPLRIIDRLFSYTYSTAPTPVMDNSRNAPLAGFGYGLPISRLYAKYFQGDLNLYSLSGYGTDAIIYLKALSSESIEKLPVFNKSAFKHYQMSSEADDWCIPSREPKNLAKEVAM
T1 sequence (Q15118 29-436): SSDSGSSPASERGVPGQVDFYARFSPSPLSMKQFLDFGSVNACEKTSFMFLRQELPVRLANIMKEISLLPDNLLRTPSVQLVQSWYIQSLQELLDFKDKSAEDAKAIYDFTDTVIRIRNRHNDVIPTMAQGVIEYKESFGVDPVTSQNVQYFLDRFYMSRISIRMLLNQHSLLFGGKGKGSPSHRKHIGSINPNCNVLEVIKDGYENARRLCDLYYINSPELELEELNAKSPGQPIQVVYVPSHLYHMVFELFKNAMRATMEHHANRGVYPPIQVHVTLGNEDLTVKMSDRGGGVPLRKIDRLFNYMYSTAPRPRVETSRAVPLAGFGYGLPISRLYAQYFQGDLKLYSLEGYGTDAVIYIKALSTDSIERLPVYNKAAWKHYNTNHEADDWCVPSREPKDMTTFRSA

As for `COc1ccc2c(c1)c(-c1nc(N)nnc1-c1cn(C)c3ncc(Br)cc13)cn2C` [5j, 6-(5-Bromo-1-methyl-1H-pyrrolo[2,3-b]pyridin-3-yl)-5-(5-methoxy-1-methyl-1H-indol-3-yl)-1,2,4-triazin-3-amine], the melting point was determined as 269.8 °C. Also, the “inhibition of PDK1 enzymatic activity” value at recombinant human PDK1 (1.5 µM compound, 30 min, room temperature) is on record as “totally hampered”. Moreover, on recombinant human PDK1 (isolated PDK1 isoform, four-parameter logistic model, mean of 3 independent experiments, read-out: IC50 (µM) ± S.D. PDK1), the IC50 stood at 0.04 ± 0.02 µM. In addition, the 50% inhibitory concentration (IC50) in data set [1] came to 0.1 ± 0.03 µM. In addition, on recombinant human HSP90 (1.5 µM compound (equi-doses)), the “decrease of HSP90 catalytic activity” value is given as 60–80%. At recombinant human HSP90 (isolated HSP90, four-parameter logistic model, mean of 3 independent experiments, read-out: IC50 (µM) ± S.D. HSP90), the IC50 was found to be 0.18 ± 0.04 µM. Further, the IC50 in the data set on BxPC-3 spheroids came out at 79.5 ± 5.4 µM. Moreover, the “inhibition of PDK4 enzymatic activity” value at recombinant human PDK4 is reported as “completely suppress”. In the data set on PSN-1 spheroids, the IC50 is 89.7 ± 5.7 µM. In addition, the 50% inhibitory concentration (IC50) in data set [2] is 0.04 ± 0.02 µM.
